# Reference: a melting point compilation (Tetko et al.; mined from patent text by program, amines drawn as free bases though some values may be those of a salt)
row,SMILES,melting point [°C]
1,Cc1ccc([N+](=O)[O-])c(CO)c1C,48 to 51
2,Fc1c2c(nc3cc(Cl)ccc13)CCCC2,68 to 70
3,O=C(O)c1cc(=O)c2c(o1)-c1ccccc1SC2,251 to 253
4,COCCc1nc2c(N)nc3ccccc3c2n1CCCNS(=O)(=O)c1cccc2c(N(C)C)cccc12,210 to 215
5,O=C1c2cccc3cccc(c23)C(=O)N1CCCCCCBr,95 to 96
6,CC(C)=CCC/C(C)=C/CSc1nc2cc(F)c(Cl)cc2[nH]1,122 to 124
7,N#Cc1ncn2c1[C@@H]1CCCN1C(=O)c1cc(F)ccc1-2,254 to 256
8,COc1cc(N)c(Cl)cc1C(=O)NCC1CCN(CCCCCC(=O)c2ccc(C)c(C)c2)CC1,115 to 117
9,CCCCc1nc2cc(Cl)cc(C(=O)OC)c2n1Cc1ccc(-c2ccccc2-c2nnn[nH]2)cc1,132 to 133
10,CCCc1cn2ccccc2c1C(=O)c1ccc(O)cc1,210 to 214
11,O=C(OCc1ccccc1)[C@@H]1CCC(=O)N1C(=O)c1ccccc1,101
12,COC(=O)c1ccccc1C1=NC(C)(C(C)C)C(=O)N1 (stereo unspecified),113 to 114
13,NC(=O)N1c2ccccc2C(Br)C(Br)c2ccccc21 (stereo unspecified),144
14,Cc1c(NC(=O)CC(C)(C)C)c(C)c2c(c1-c1c[nH]cn1)OCC2c1ccc(C(C)C)cc1 (stereo unspecified),277 to 279
15,C=C(C)CC1(OC=C(C)C)CC=C(C)C(NC=O)=C1C (stereo unspecified),109
16,COc1cc(N2CCOCC2)ccc1C(=O)O,158 to 160
17,CCNC1CCN(c2c(F)cc3c(=O)c(C(=O)O)cn(C4CC4)c3c2OC)CC1C (stereo unspecified),160 to 162
18,N#Cc1ccc(-c2ccc(Cl)nn2)cc1,236 to 238
19,CCCCN(CC)c1nc(C)nc2c1C(C)(C)C(O)N2c1c(C)cc(C)cc1C (stereo unspecified),142 to 145
20,CC(=O)c1ccc(NS(C)(=O)=O)c(NC(=O)c2ccc(F)cc2F)c1,203 to 204
21,CC(C)(C)Sc1c(CC(C)(C)C(=O)O)n(Cc2ccc(Cl)cc2)c2ccc(OCc3cnc4ccccc4n3)cc12,216 to 219
22,COc1ccc(CC(C#N)=CNc2ccccc2)c2ccccc12,188 to 189
23,O=c1c2cccnc2n(-c2cccc(Cl)c2)c2ccsc12,264 to 267
24,COc1ccc(S(=O)(=O)Nc2ccccc2NC(=O)c2ccccc2[N+](=O)[O-])cc1,168 to 170

row,SMILES,melting point [°C]
1,COc1cc(O[Si](C)(C)C(C)(C)C)c(C)c(C(=O)O)c1Br,120 to 125
2,Cc1nc2c3c(c(CO)cn2c1C)CCC(c1ccccc1)C3 (stereo unspecified),290 to 292
3,CCOC(=O)c1c(C)nc(C)n1Cc1ccc2oc(-c3ccccc3-c3nnn(C(c4ccccc4)(c4ccccc4)c4ccccc4)n3)c(Br)c2c1,98 to 100
4,COC(=O)c1cc2cc(C[C@@H](C)NC[C@H](O)c3cccc(Cl)c3)ccc2n1CC1CC1,135 to 137
5,COc1cc(Br)ccc1-c1ccc(Br)cc1N,94.5 to 97
6,O=C(O)CCC(C(=O)O)N1C(=O)c2ccccc2C1=S (stereo unspecified),157
7,CC(C)(C)C(=O)Nc1ccc(Cl)cn1,51.4 to 53.4
8,N#Cc1ccc(C=C2CCCN(C(=O)c3ccc(Cl)cc3)C2)cc1,> 210
9,Cc1c(-c2ccccc2)oc2c(OCC3CO3)cccc2c1=O (stereo unspecified),128 to 129
10,CS(=O)c1nsc(Cl)n1 (stereo unspecified),72
11,COc1ccc(C(C)=O)cc1C=CC(=O)O,203
12,CC(C)c1ccc(N(C=O)C(=O)N(C)C)cc1,30 to 32
13,COc1ccc(Oc2c(Cl)cc(-n3ncc(=O)[nH]c3=O)cc2Cl)cc1NS(=O)(=O)c1ccc(F)cc1,90 to 96
14,N#CN=C(Nc1ccc(C#N)cc1O)Nc1ccccc1Br,175 to 176
15,Cc1cccc(NCC(C)Br)c1C (stereo unspecified),55 to 58
16,CC1=C(c2ccc(C(=O)N3Cc4ccc(C(=O)O)n4Cc4ccccc43)cc2)CCCC1,171
17,CCCCCCCCCCCc1nc2c(O)c(Cl)cc(Cl)c2cc1CCCCCCCCCC,46 to 47
18,CC(C)(C)OCc1cc(Oc2ccc(C(F)(F)F)cc2Cl)ccc1[N+](=O)[O-],75 to 78
19,CCCNC(=O)COC1c2ccccc2C(=O)N1c1ccc2ccc(Cl)nc2n1 (stereo unspecified),167
20,CCOC(=O)C1=C(N=CN(C)C)NC(C)=C(C(=O)OC(C)C)C1c1ccccc1Cl (stereo unspecified),138
21,COC(=O)c1ccccc1S(=O)(=O)NC(=O)Nc1nc(OC)nc(C2CC2)n1,166 to 168
22,N#Cc1cccn2cc(-c3ccc(C(=O)NCCC(=O)O)cc3)nc12,212 to 215
23,COc1cc(CC(=O)Nc2ccc(C3CN(C(C)=O)CC3C(=O)O)cc2)ccc1NC(=O)Nc1ccccc1C (stereo unspecified),242
24,CCCOc1ccccc1-c1nc2nc(SC)ncc2c(=O)[nH]1,179 to 181

row,SMILES,melting point [°C]
1,O=C(O)CN1C(=O)C(=O)N(Cc2cccc([N+](=O)[O-])c2)C1=S,188
2,CC(=O)OC1CSC(Oc2cc(C)c(-c3cccnc3)c(C)c2)C(OC(C)=O)C1OC(C)=O (stereo unspecified),75 to 80
3,COc1ccc2nc(-c3cc(C(F)(F)F)nn3-c3ccc(S(C)(=O)=O)cc3)sc2c1,217 to 218
4,CC(=O)Oc1c(C2CCN(CCCCNC(=O)c3ccc(NC(=O)c4ccc(Cl)cc4)cc3)CC2)ccc2ccccc12,240
5,COc1ccc(S(=O)(=O)N2CC3CCC(CC3)C2)c2ccccc12,168 to 170
6,CCCc1nc2c(N)nc3ccccc3c2n1CC(C)(C)CC(C)=O,178 to 180
7,CC(C)S(=O)c1cnc(Cl)c(Cl)c1 (stereo unspecified),62 to 64
8,O=c1[nH]ccn1CC#CCN1CCCC1,99 to 102
9,CON=C(C1=NOCCO1)c1ccccc1COc1ccn(-c2ccc(Cl)cc2)n1,56 to 59
10,COc1ccc(F)cc1C(C)(C)CC(O)(Cn1ccc(=N)c2ccccc21)C(F)(F)F (stereo unspecified),137 to 140
11,CCOC(=O)/C(N)=C/C(=O)/C=C/c1ccc(Cl)cc1,105 to 107
12,O=C(O)C1(CS(=O)(=O)c2ccc(Oc3ccccc3)cc2)CCOCC1,162 to 165
13,CNC(=NC#N)NCCCCSc1nccc(NC(N)=NCC(F)(F)F)n1,179 to 180
14,CCOC(=O)CNC(=S)NC(Cc1ccc(OC)cc1)=Nc1ccccc1,120 to 121
15,CCOCc1nc(N)c2nc(C)cnc2n1,166 to 168
16,O=S1(=O)CC=C(CBr)C1,76 to 84
17,Nc1nc(N)c(CCCCc2ccc(C(=O)N[C@@H](CCC(=O)O)C(=O)O)cc2)c(O)n1,169 to 171
18,CCNC(=O)C(=CNc1ccc(I)cc1)C(=O)c1ccccc1Cl,160 to 162
19,ClC1=NC(Cl)(C(Cl)(Cl)C(Cl)(Cl)Cl)N=C1Cl,74 to 75
20,CC(C)c1cccc(-n2c(C(=O)Nc3ccc4c(ccn4C)c3)cc3cc(OC(F)(F)F)ccc32)c1,164 to 165
21,CCC(O)(CC)CC(=NO)C1(c2ccc(Cl)cc2)CCC1,113 to 115
22,CCN(C(=O)N1CCN(c2ccccc2OC)CC1)c1cc(C)c(C)nc1OC,112 to 113
23,CC(=O)Nc1ccc2c(c1)OC(C)O2 (stereo unspecified),155 to 156
